Source: paper PMC9252919, “Controlled masking and targeted release of redox-cycling ortho-quinones via a C–C bond-cleaving 1,6-elimination” (Nature Chemistry, 2022)

Assays:
HL-60 cells = test: Lysosomal deacidification and inhibition assay; format: cell-based, human; settings: HL-60
Description: Assays to assess the effect of lysosomal activity on prodrugs were performed as follows: HL-60 cells were plated into 96-well plates at a concentration of 2.5 × 10^5 cells ml^−1 in 180 µl media. Cells were treated with 10 µl of a stock of NH4Cl in PBS (to obtain an in-plate concentration of 3 or 30 mM), 10 µl of a dilution of a DMSO stock of E64d in PBS (to obtain an in-plate concentration of 30 μM), PBS only or a dilution of DMSO in PBS. Cells were incubated for 30 min. Following this, 10 µl of a stock of test compound made by dilution of a DMSO stock into media was added. DMSO was present in-plate at a maximum of 0.2%. Cells were incubated overnight for 16 h. Following incubation, media was replaced with media containing CellTiter-Blue (Promega) in 1:4 dilution and the plates were incubated for 6 h. The fluorescence of the plates was recorded (excitation, 555 nm; emission, 585 nm; MiniMax i3x Reader, Molecular Devices). Cell viability was calculated by division of the fluorescence intensity of treated wells by that of the average fluorescence intensity of the relevant negative control wells.

CD33+ HL-60 cells = test: Viability assay with small-molecule prodrugs and ADCs, HL-60; format: cell-based, human
Description: (§1) For assays assessing cytotoxicity of β-lapachone versus small-molecule prodrugs, antibodies and ADCs, suspension cells were plated into 24-well plates at a density of 2.5 × 10^5 cells ml^−1 in 240 µl. Stocks of ADC or antibody in PBS were normalized to 12.5 µM. Serial dilutions of compound were made up in PBS. Then, 60 µl of each stock of either PBS or compound in PBS was added to the cells to achieve the desired final concentration. After the specified incubation time, toxicity was assessed by counting of live cells using the trypan blue exclusion method with a Countess II Automated Cell Counter (ThermoFisher Scientific) according to the manufacturer’s instructions. Cell viability was determined by dividing the average live cell number of treated wells by the average live cell number for control wells treated with PBS only. IC50 values were calculated using GraphPad Prism software. Note: for the assay performed over 96 h, 5% human serum was added to media instead of 10% fetal bovine serum, to limit non-specific antibody internalisation. This had little effect on ADC toxicity.

AML cell line MOLM-13 = test: Viability assay with small-molecule prodrugs, MOLM-13; format: cell-based; settings: MOLM-13
Description: as §1

HEL cells = test: Viability assay with ADCs, HEL, trypan blue exclusion; format: cell-based, human; settings: 96 h
Description: as §1

IC50 relative to 1 in HL-60 (CD33+ HL-60 cells) [fold] | IC50 relative to 1 in MOLM-13 (AML cell line MOLM-13) [fold] | Molecule | toxicity after lysosomal deacidification (NH4Cl) or inhibition (E64d) (HL-60 cells) | toxicity to HEL at 2.5 µM (HEL cells; 2.5 µM) | in vitro toxicity against HEL (HEL cells; live cell count)
10 | 10 | CC(C)C(NC(=O)OCc1ccccc1)C(=O)NC(CCCNC(N)=O)C(=O)Nc1ccc(CC2(O)C(=O)C3=C(OC(C)(C)CC3)c3ccccc32)cc1 (centres unmarked) [Compound 26] | less toxic | – | –
– | – | Gem-IgG1: native IgG1 antibody containing the variable region of gemtuzumab (antibody, chains of the INN, looked up, V domains shown, IgG1, native IgG1 antibody containing the variable region of gemtuzumab) VH: EVQLVQSGAEVKKPGSSVKVSCKASGYTITDSNIHWVRQAPGQSLEWIGYIYPYNGGTDYNQKFKNRATLTVDNPTNTAYMELSSLRSEDTAFYYCVNGNPWLAYWGQGTLVTVSS VL: DIQLTQSPSTLSASVGDRVTITCRASESLDNYGIRFLTWFQQKPGKAPKLLMYAASNQGSGVPSRFSGSGSGTEFTLTISSLQPDDFATYYCQQTKEVPWSFGQGTKVEVK | – | no toxicity | no apparent toxicity
